Laboratory results as given in EP2768830B1, “APOPTOSIS-INDUCING AGENTS FOR THE TREATMENT OF CANCER AND IMMUNE AND AUTOIMMUNE DISEASES” (AbbVie Inc., priority 2011, dated 2013).
pEC50, pKi: −log10 of the molar value. Where two headings read alike, the source gives them in different places.

Experiments:
[1] = tested on: mouse FL5.12 cells transfected with Bcl-XL; assay: FL5.12 cellular assay (cell viability, CellTiter-Glo); assay type: cell-based; settings: FL5.12 cells transfected with Bcl-XL, IL-3-depleted, 3% FBS assay media, 24 hours, CellTiter-Glo, read-out: FL5.12 Bcl-xL, - IL3, EC 50;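 note: each EC50 determination derived from duplicate measurements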
GST-Bcl-xL = GST-Bcl-xL (Homo sapiens, UniProt Q07817); settings: read-out: TR-FRET binding Bcl-xL Ki
Chain of GST-Bcl-xL (Q07817 whole entry): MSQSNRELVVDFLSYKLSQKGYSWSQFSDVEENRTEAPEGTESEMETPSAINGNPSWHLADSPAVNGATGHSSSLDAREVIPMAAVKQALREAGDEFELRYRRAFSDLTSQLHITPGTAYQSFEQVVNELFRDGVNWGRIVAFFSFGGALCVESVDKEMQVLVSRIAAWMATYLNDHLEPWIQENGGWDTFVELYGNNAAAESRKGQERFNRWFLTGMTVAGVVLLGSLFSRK

| Structure (SMILES) | pEC50 ([1]; Mus musculus) | pKi (GST-Bcl-xL) | pEC50 [1] |
| --- | --- | --- | --- |
| COCCOC1(Cn2ncc(-c3ccc(N4CCc5cccc(C(=O)Nc6nc7ccccc7s6)c5C4)nc3C(=O)O)c2C)CCCCCC1 [Example 151, 6-[8-(1,3-benzothiazol-2-ylcarbamoyl)-3,4-dihydroisoquinolin-2(1H)-yl]-3-(1-{[1-(2-methoxyethoxy)cycloheptyl]methyl}-5-methyl-1H-pyrazol-4-yl)pyridine-2-carboxylic acid] | 9.22 | > 10.00 |  |
| COCCC(C1CCCCC1)n1ncc(-c2ccc(N3CCc4cccc(C(=O)Nc5nc6ccccc6s5)c4C3)nc2C(=O)O)c1C (stereo not drawn) [Example 184, 6-[8-(1,3-benzothiazol-2-ylcarbamoyl)-3,4-dihydroisoquinolin-2(1H)-yl]-3-[1-(1-cyclohexyl-3-methoxypropyl)-5-methyl-1H-pyrazol-4-yl]pyridine-2-carboxylic acid] | 8.70 | > 10.00 |  |
| Cc1c(-c2ccc(N3CCc4cccc(C(=O)Nc5nc6ccccc6s5)c4C3)nc2C(=O)O)cnn1Cc1ccccc1OCCCN1CCOCC1 [Example 81, 6-[8-(1,3-benzothiazol-2-ylcarbamoyl)-3,4-dihydroisoquinolin-2(1H)-yl]-3-(5-methyl-1-{2-[3-(morpholin-4-yl)propoxy]benzyl}-1H-pyrazol-4-yl)pyridine-2-carboxylic acid] | 7.43 | 9.22 |  |
| COCCCC1(Cn2ncc(-c3ccc(N4CCc5cccc(C(=O)Nc6nc7ccccc7s6)c5C4)nc3C(=O)O)c2C)CCCCCC1 [Example 147, 6-[8-(1,3-benzothiazol-2-ylcarbamoyl)-3,4-dihydroisoquinolin-2(1H)-yl]-3-(1-{[1-(3-methoxypropyl)cycloheptyl]methyl}-5-methyl-1H-pyrazol-4-yl)pyridine-2-carboxylic acid] |  | > 10.00 | 9.00 |
| O=C(Nc1nc2ccccc2s1)c1cccc2c1CN(c1ccc(-c3ccnc(OC4CCCCC4)c3)c(C(=O)O)n1)CC2 [Example 139, 6-[8-(1,3-benzothiazol-2-ylcarbamoyl)-3,4-dihydroisoquinolin-2(1H)-yl]-2'-(cyclohexyloxy)-3,4'-bipyridine-2-carboxylic acid] | < 6.00 | 9.40 |  |
| O=C(Nc1nc2ccccc2s1)c1cccc2c1CN(c1ccc(-c3cnn(Cc4ccccc4OCc4ccncc4)c3)c(C(=O)O)n1)CC2 [Example 48, 6-[8-(1,3-benzothiazol-2-ylcarbamoyl)-3,4-dihydroisoquinolin-2(1H)-yl]-3-{1-[2-(pyridin-4-ylmethoxy)benzyl]-1H-pyrazol-4-yl}pyridine-2-carboxylic acid] | < 6.00 | 8.15 |  |
| COCCC1(Cn2ncc(-c3ccc(N4CCc5cccc(C(=O)Nc6nc7ccccc7s6)c5C4)nc3C(=O)NS(C)(=O)=O)c2C)CCCCCC1 [Example 148, N-(1,3-benzothiazol-2-yl)-2-{5-(1-{[1-(2-methoxyethyl)cycloheptyl]methyl}-5-methyl-1H-pyrazol-4-yl)-6-[(methylsulfonyl)carbamoyl]pyridin-2-yl}-1,2,3,4-tetrahydroisoquinoline-8-carboxamide] | 7.89 | > 10.00 |  |
| Cc1c(-c2ccc(N3CCc4cccc(C(=O)Nc5nc6ccccc6s5)c4C3)nc2C(=O)O)cc(C#N)n1CC1(N(C)C)CCCCC1 [Example 176, 6-[8-(1,3-benzothiazol-2-ylcarbamoyl)-3,4-dihydroisoquinolin-2(1H)-yl]-3-(5-cyano-1-{[1-(dimethylamino)cyclohexyl]methyl}-2-methyl-1H-pyrrol-3-yl)pyridine-2-carboxylic acid] | 8.00 | > 10.00 |  |
| Cc1ccc(Oc2ccccc2)cc1-c1ccc(N2CCc3cccc(C(=O)Nc4nc5ccccc5s4)c3C2)nc1C(=O)O [Example 109, 6-[8-(1,3-benzothiazol-2-ylcarbamoyl)-3,4-dihydroisoquinolin-2(1H)-yl]-3-(2-methyl-5-phenoxyphenyl)pyridine-2-carboxylic acid] | < 6.00 | 7.31 |  |
| O=C(Nc1nc2ccccc2s1)c1cccc2c1CN(c1ccc(-c3cnn(Cc4cc(F)ccc4F)c3)c(C(=O)O)n1)CC2 [Example 54, 6-[8-(1,3-benzothiazol-2-ylcarbamoyl)-3,4-dihydroisoquinolin-2(1H)-yl]-3-[1-(2,5-difluorobenzyl)-1H-pyrazol-4-yl]pyridine-2-carboxylic acid] | 6.30 | 7.82 |  |
| N#Cc1cccc(Cn2cc(-c3ccc(N4CCc5cccc(C(=O)Nc6nc7ccccc7s6)c5C4)nc3C(=O)O)cn2)c1 [Example 24, 6-[8-(1,3-benzothiazol-2-ylcarbamoyl)-3,4-dihydroisoquinolin-2(1H)-yl]-3-[1-(3-cyanobenzyl)-1H-pyrazol-4-yl]pyridine-2-carboxylic acid] |  | 7.19 | < 6.00 |
| COCCOc1ccccc1Cn1ncc(-c2ccc(N3CCc4cccc(C(=O)Nc5nc6ccccc6s5)c4C3)nc2C(=O)O)c1C [Example 89, 6-[8-(1,3-benzothiazol-2-ylcarbamoyl)-3,4-dihydroisoquinolin-2(1H)-yl]-3-{1-[2-(2-methoxyethoxy)benzyl]-5-methyl-1H-pyrazol-4-yl}pyridine-2-carboxylic acid] | 7.64 | 9.30 |  |
| O=C(Nc1nc2ccccc2s1)c1cccc2c1CN(c1ccc(-c3cccc(Oc4ccc([N+](=O)[O-])cc4)c3)c(C(=O)O)n1)CC2 [Example 104, 6-[8-(1,3-benzothiazol-2-ylcarbamoyl)-3,4-dihydroisoquinolin-2(1H)-yl]-3-[3-(4-nitrophenoxy)phenyl]pyridine-2-carboxylic acid] | < 6.00 | 7.85 |  |
| Cc1ccc(-c2ccc(N3CCc4cccc(C(=O)Nc5nc6ccccc6s5)c4C3)nc2C(=O)O)cc1Oc1ccccc1 [Example 108, 6-[8-(1,3-benzothiazol-2-ylcarbamoyl)-3,4-dihydroisoquinolin-2(1H)-yl]-3-(4-methyl-3-phenoxyphenyl)pyridine-2-carboxylic acid] | < 6.00 | 8.05 |  |
| O=C(Nc1nc2ccccc2s1)c1cccc2c1CN(c1ccc(-c3ccc4c(cnn4Cc4ccccc4)c3)c(C(=O)O)n1)CC2 [Example 153, 6-[8-(1,3-benzothiazol-2-ylcarbamoyl)-3,4-dihydroisoquinolin-2(1H)-yl]-3-(1-benzyl-1H-indazol-5-yl)pyridine-2-carboxylic acid] | 6.23 | 9.52 |  |
| Cc1cc(Oc2ccccc2)ccc1-c1ccc(N2CCc3cccc(C(=O)Nc4nc5ccccc5s4)c3C2)nc1C(=O)O [Example 111, 6-[8-(1,3-benzothiazol-2-ylcarbamoyl)-3,4-dihydroisoquinolin-2(1H)-yl]-3-(2-methyl-4-phenoxyphenyl)pyridine-2-carboxylic acid] | < 6.00 | 7.68 |  |
| Cc1c(-c2ccc(N3CCc4cccc(C(=O)Nc5nc6ccccc6s5)c4C3)nc2C(=O)O)cnn1CC1CCCC1 [Example 63, 6-[8-(1,3-benzothiazol-2-ylcarbamoyl)-3,4-dihydroisoquinolin-2(1H)-yl]-3-[1-(cyclopentylmethyl)-5-methyl-1H-pyrazol-4-yl]pyridine-2-carboxylic acid] | 7.57 | 8.70 |  |
| O=C(Nc1nc2ccccc2s1)c1cccc2c1CN(c1ccc(-c3cnn(Cc4cccc(O)c4)c3)c(C(=O)O)n1)CC2 [Example 17, 6-[8-(1,3-benzothiazol-2-ylcarbamoyl)-3,4-dihydroisoquinolin-2(1H)-yl]-3-[1-(3-hydroxybenzyl)-1H-pyrazol-4-yl]pyridine-2-carboxylic acid] |  | 7.51 | < 6.00 |
| O=C(Nc1nc2ccccc2s1)c1cccc2c1CN(c1ccc(-c3cnn(CC4CCNCC4)c3)c(C(=O)O)n1)CC2 [Example 135, 6-[8-(1,3-benzothiazol-2-ylcarbamoyl)-3,4-dihydroisoquinolin-2(1H)-yl]-3-[1-(piperidin-4-ylmethyl)-1H-pyrazol-4-yl]pyridine-2-carboxylic acid] | < 6.00 | 7.11 |  |
| O=C(Nc1nc2ccccc2s1)c1cccc2c1CN(c1ccc(-c3cnn(Cc4cccc(N5CCCC5)n4)c3)c(C(=O)O)n1)CC2 [Example 22, 6-[8-(1,3-benzothiazol-2-ylcarbamoyl)-3,4-dihydroisoquinolin-2(1H)-yl]-3-(1-{[6-(pyrrolidin-1-yl)pyridin-2-yl]methyl}-1H-pyrazol-4-yl)pyridine-2-carboxylic acid] | 6.67 | 8.22 |  |
| O=C(Nc1nc2ccccc2s1)c1cccc2c1CN(c1ccc(-c3ccn(S(=O)(=O)c4ccccc4)c3)c(C(=O)O)n1)CC2 [Example 128, 6-[8-(1,3-benzothiazol-2-ylcarbamoyl)-3,4-dihydroisoquinolin-2(1H)-yl]-3-[1-(phenylsulfonyl)-1H-pyrrol-3-yl]pyridine-2-carboxylic acid] | < 6.00 | 8.15 |  |
| O=C(Nc1nc2ccccc2s1)c1cccc2c1CN(c1ccc(-c3cn(Cc4ccccc4)c4cnccc34)c(C(=O)O)n1)CC2 [Example 188, 6-[8-(1,3-benzothiazol-2-ylcarbamoyl)-3,4-dihydroisoquinolin-2(1H)-yl]-3-(1-benzyl-1H-pyrrolo[2,3-c]pyridin-3-yl)pyridine-2-carboxylic acid] | 6.26 | 9.30 |  |
| O=C(Nc1nc2ccccc2s1)c1cccc2c1CN(c1ccc(-c3cccc(Cc4ccccc4)c3)c(C(=O)O)n1)CC2 [Example 106, 6-[8-(1,3-benzothiazol-2-ylcarbamoyl)-3,4-dihydroisoquinolin-2(1H)-yl]-3-(3-benzylphenyl)pyridine-2-carboxylic acid] | 6.63 | 10.00 |  |
| O=C(Nc1nc2ccccc2s1)c1cccc2c1CN(c1ccc(-c3cccc4c3cnn4Cc3ccccc3)c(C(=O)O)n1)CC2 [Example 187, 6-[8-(1,3-benzothiazol-2-ylcarbamoyl)-3,4-dihydroisoquinolin-2(1H)-yl]-3-(1-benzyl-1H-indazol-4-yl)pyridine-2-carboxylic acid] | 6.50 | 9.40 |  |
